This is an account of results in PubChem BioAssay (NCI).

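Dose response: 5 concentrations. Exposure: 48 h. Format: 96-well plates. Endpoint: linear interpolation; highest concentration if not reached. TGI is the concentration that stops growth completely.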

Holding throughout (test): NCI anticancer screen, dose series, 48 h
The subject of test [1] is ACHN renal.
Test [2] has as its system CCRF-CEM leukemia.
Test [3] relates to HCT-15 colon.
In test [4] the test system is HOP-92 NSCLC.
For test [5], the system named is HS 578T breast.
Test [6] concerns IGROV1 ovarian.
Test [7] has as its system KM12 colon.
The subject of test [8] is LOX IMVI melanoma.
Test [9] relates to MALME-3M melanoma.
Test [10] has as its system OVCAR-3 ovarian.
The test system of test [11] is OVCAR-8 ovarian.
In test [12] the test system is SK-MEL-2 melanoma.
Test [13] relates to SK-MEL-28 melanoma.
In test [14] the test system is SK-MEL-5 melanoma.
Test [15] relates to SK-OV-3 ovarian.
In test [16] the test system is SW-620 colon.
Test [17] relates to TK-10 renal.
Test [18] has as its system UACC-257 melanoma.
For test [19], the system named is UO-31 renal.
The test system of test [20] is NCI-H522 lung.

For `O=c1oc2ccccc2c(-c2ccc(O)cc2)c1Oc1ccccc1`, the TGI in [1] was > 100 µM; in test [2], > 100 µM; in test [3] it was > 70 µM; in test [4], 26.6 µM; in [5], 18.2 µM; in test [6] it was 18.6 µM. Moreover, the TGI in test [7] was > 68.5 µM; in test [8] it was > 31.6 µM; in [9] it was 9.26 µM; in test [10] it was > 63.3 µM; in [11], > 31.6 µM; in test [12], 18.5 µM. In addition, the TGI in test [13] is > 66.1 µM; in test [14], 41.2 µM; in test [15], > 100 µM; in test [16] it was > 100 µM; in test [17] it was > 96.7 µM; in test [18], 30.7 µM. The TGI in [19] is 32.3 µM.

For `O=C(Nc1ccc(Cl)cc1Cl)C1C(=O)OC2(CCCCC2)OC1=O`, the TGI in [1] is 33.9 µM; in test [2] it was 33.2 µM; in [3] it was 29.4 µM; in test [4], 28.1 µM; in test [5], 64.9 µM; in [6] it was 64.1 µM. The TGI in test [7] turned out to be 28.4 µM; in test [8] it was 20.4 µM; in test [20] it was 52.5 µM; in [10], 16.1 µM; in test [11] it was 39.6 µM; in test [12], 12.6 µM. In addition, the TGI is 23.5 µM in [13]; 22.1 µM in test [14]; 32.2 µM in test [15]; 25.3 µM in test [16]; > 100 µM in test [17]; 30.1 µM in test [18]. Also, the TGI in test [19] came out at 15.1 µM.

On to `COc1ccc(OC)c(/C=C2/C(=O)N=C(NC(C)=O)N2C)c1`, for which the TGI in test [1], in [2], in test [3], in test [4], in test [5] and in [6] was > 100 µM throughout. In addition, the TGI in [7], in test [8], in test [20], in test [10], in test [11] and in [12] was > 100 µM throughout. For the same compound, the TGI in test [13], in [14], in [15], in test [16], in test [17] and in test [18] was > 100 µM in each case. Besides, the TGI in [19] is > 100 µM.

As to `CCN(CC)/[N+]([O-])=N/OS(=O)(=O)N(C)C`, the TGI in [1], in test [2], in test [3], in test [4], in test [5] and in test [6] was > 100 µM each time. The TGI in test [7], in test [8], in [9], in test [20], in test [10] and in [11] was > 100 µM each time. Besides, the TGI in [13], in [14], in [15], in [16], in test [17] and in test [18] was > 100 µM throughout.

For `CCOC(=O)c1nc2ccc(C(F)(F)F)cc2nc1Oc1ccc(OC)cc1`, the TGI in test [1], in test [2], in [3], in test [4], in test [5] and in test [6] was > 100 µM each time. Further, the TGI in test [7], in [8], in test [9], in [10], in test [11] and in [12] was > 100 µM throughout. Also, the TGI in test [13], in test [14], in test [15], in test [16], in test [17] and in test [18] was > 100 µM each time. Moreover, in test [19], the TGI is > 100 µM.

Take `O=[N+]([O-])c1ccc2c3c1[C@@H]1O[C@@H]1c1cccc(c1-3)[C@@H]1O[C@H]21`: the TGI in test [2] stood at 8.17 µM; in test [3], 6.05 µM; in [4], 28.6 µM; in [5], 19.7 µM; in [6] it was 2.72 µM; in test [7], 10.1 µM. Further, the TGI in test [8] is 3.44 µM; in test [9], 12.7 µM; in test [20], 3.33 µM; in [10] it was 10.9 µM; in test [11] it was 4.46 µM; in test [12], > 23.7 µM. Also, the TGI in [13] was > 22.1 µM; in [14] it was 27.2 µM; in [15] it was 44.3 µM; in test [16], 6.7 µM; in [17] it was > 51.2 µM; in test [18] it was > 25.1 µM.

In the case of `O=C(OC1OC2COC(=O)c3cc(O)c(O)c(O)c3-c3c(cc(O)c(O)c3O)C(=O)OC3C2OC(=O)[C@@]24CC(=O)[C@@](O)(OC25C(=O)O[C@H]2[C@@H](O)CO[C@@]25O)C2(O)Oc5c(O)c(O)cc(c5C24)C(=O)OC13)c1cc(O)c(O)c(O)c1` (stereo partly specified), the TGI in test [1] was > 100 µM; in test [2], 87.8 µM; in [3], > 100 µM; in [4], > 100 µM; in test [5], > 100 µM; in test [6], > 100 µM. Further, the TGI in [7] is 68.6 µM; in [8] it was 25.1 µM; in [9] it was > 100 µM; in test [20] it was 88 µM; in test [10], > 100 µM; in test [11], > 100 µM. In addition, the TGI in test [12], in test [13], in test [14], in [15], in test [16] and in test [18] was > 100 µM throughout. Also, the TGI in [19] is > 100 µM.
